# Results published in PMC10300352, “Discovery of novel benzylquinazoline molecules as p97/VCP inhibitors” (Frontiers in Pharmacology, 2023).
# Read-outs that look alike come from different tables or passages of the source.
# What was measured:
# p97 [1] = conditions: cited from earlier work
# His6-p97 = His6-p97 (Homo sapiens, UniProt P55072); test: Microscale thermophoresis (MST) binding assay with fluorescent-labeled His6-p97
# Protocol: Fluorescent labeling of His6-p97 was carried out using the RED-tris-NTA labeling kit (Catalog No. MO-L011, NanoTemper Technologies) on a NanoTemper Monolith NT.115 following the manufacturer’s protocol. In brief, His6-p97 protein was diluted into 200 nM with PBST (0.05% Tween 20 in PBS), and red-NHS dye was diluted into 100 nM with PBST. Then, His6-p97 and RED-tris-NTA dye were mixed in a 1:1 volumetric ratio and incubated at room temperature for 30 min. […] Then 10 μL of compounds were mixed at different concentrations with 10 μL of dye-labeled His6-p97. Subsequently, well-mixed solutions containing compounds and dye-labeled His6-p97 were loaded into capillaries (Catalog No. MO-K025, NanoTemper Technologies), which were placed in slots 1–16 on the capillary rack. Then, MST experiments were carried out at an ambient temperature, and the instrument parameters were set to 20% LED power and medium MST power. The equilibrium dissociation constants were derived from the M.O. Affinity Analysis software using the K d model based on four independently titrated experiments per condition.
# HCT116 cells [2] = test: Apoptosis assay, annexin V/PI staining and flow cytometry; conditions: 10 μM, 12 h; control cells 3.5%
# Protocol: Apoptosis was measured by flow cytometry after staining with annexin V and propidium iodide (PI) in HCT116 (Figure 5).
# The assay was performed as recommended by the manufacturer. Briefly, the HCT116 cells were seeded in 6-well plates (2 × 10^6 cells/well) and allowed to adhere for 4 hours. Then, each well was treated with DMSO (0.5% v/v) or compounds for 12 h. For the apoptosis experiment, at the end of treatment, the cells were washed twice with cold PBS and then harvested for staining with annexin V in binding buffer for 15 min in the dark at room temperature. The cells were washed in binding buffer and then incubated with propidium iodide. […] The samples were measured using flow cytometry (Beckman, cytoFLEX) within 4 h and analyzed using CytExpert (V 2.4.0.28).
# K562 = test: Cell proliferation assay (MTT/CCK-8), K562; conditions: Homo sapiens, K562, 48 h, read-out: IC50 K562
# Protocol: (§1) Cells were treated with the tested compounds in a variety of concentrations and incubated at 37°C for 48 h before measurement. IC50 values were calculated using the percentage of growth of treated cells versus the blank control (Table 2).
# (§2) The medium was supplemented with 10% fetal bovine serum (FBS) (Hyclone, SH30084.03). Cells were cultured in an incubator containing 5% CO2 at 37°C.
# (§3) Cells were seeded at 3,000–4,000 cells per well in a 96-well plate to test the antiproliferative activity of target compounds. Cells were treated with the compounds or positive controls 6 h after seeding (twofold dilution, eight concentrations). […] The results were analyzed using GraphPad Prism 7.0.
# NCM460 = test: Cell proliferation assay (MTT/CCK-8), normal colon mucosal epithelial cell line NCM460; conditions: Homo sapiens, NCM460, 48 h, read-out: IC50 NCM460
# Protocol: (§4) Cells were treated with the tested compounds in a variety of concentrations and incubated at 37°C for 48 h before measurement. […] Furthermore, we evaluated all compounds’ potency toward the normal human cell line NCM460.
# as §2, §3
# s180 = test: Cell proliferation assay (MTT/CCK-8), s180; conditions: Mus musculus, S-180, 48 h, read-out: IC50 s180
# Protocol: as §4, §2, §3
# HepG2 = test: Cell proliferation assay (MTT/CCK-8), HepG2; conditions: Homo sapiens, HepG2, 48 h, read-out: IC50 HepG2
# Protocol: as §1, §2, §3
# RPMI-8226 = test: Cell proliferation assay (MTT/CCK-8), RPMI-8226; conditions: Homo sapiens, RPMI-8226, 48 h, read-out: IC50 RPMI-8226
# Protocol: as §1, §2, §3
# A549 = test: Cell proliferation assay (MTT/CCK-8), A549; conditions: Homo sapiens, A549, 48 h, read-out: IC50 A549
# Protocol: as §1, §2, §3
# p97 ATPase = p97 ATPase (Homo sapiens, UniProt P55072); test: p97 ATPase inhibition, ADP-Glo kinase assay; conditions: for IC50 of inactivation activities against p97: ADP-Glo, 20 nM p97, 20 μM ATP
# Protocol: As the major indicator of p97 inhibitors, the inactivation of p97 ATPase by the tested compounds was determined using an ADP-Glo kinase assay, in which the formation of ADP represented the activity of ATPase.
# His‐tagged human VCP (hVCP) cDNA was amplified by PCR and cloned into PCR‐linearized pET15 b (Merck Millipore, Burlington, MA, United States) using a CloneEZ Kit (Genscript). The pET15 b‐hVCP plasmid was transformed into Escherichia coli BL21 (Rosetta; Novagen, Madison, WI, United States), and the transformed bacteria were pre-cultured in LB medium containing kanamycin and chloramphenicol overnight at 37°C. Protein expression was induced with 1 mmol/L isopropyl‐β‐D‐thiogalactopyranoside.
# Protein concentrations were first normalized using a Pierce BCA protein assay kit (Thermo Fisher), and a standard series was prepared with the BSA provided (2 mg/ml–25 μg/μL). Twenty-five microliters of each standard and unknown sample was added to a 96-well plate in triplicate, and 200 μL of working reagent was added to each well and prepared according to the manufacturer’s guidelines.
# The protein solution was diluted to 20 nM of p97 with 20 μM ATP in triplicate in 5 μL of 1× Kinase Reaction Buffer A (40 mM Tris, pH 7.5, 20 mM MgCl2, 0.1 mg/mL BSA) and incubated at 37°C for 30 min. After incubation, the solutions were equilibrated to RT for 5 min, and 5 μL of ADP-Glo reagent was added to stop the reaction and consume the remaining ATP. The solution was incubated for 40 min at RT. Ten microliters of kinase detection reagent was added and incubated for 30 min. The sample’s luminescence was recorded using a multimode microplate reader (SMP7, MD). Each sample was averaged across the three measurements and plotted as mean ± standard deviation.
# HCT116 = test: Cell proliferation assay (MTT/CCK-8), HCT116; conditions: Homo sapiens, HCT-116, 48 h, read-out: IC50 HCT116
# Protocol: as §1, §2, §3
# HCT116 cells [3] = test: Cell cycle assay, PI staining and flow cytometry; format: cell-based, human; conditions: for effect on the cell cycle: HCT116, 12 h
# [4] = Myelosuppressive toxicity evaluation, peripheral blood counts of s180 mice; format: in vivo, ICR mice; conditions: day 10, 90 μmol/kg/day, vs vehicle
# Protocol: To determine the effects on myelosuppression, WBC, RBC, PLT count, ALC, and ANC were performed in peripheral blood samples of s180 mice (Figure 7F) on day 10.
# [5] = system: SQSTM1/p62, ATF4, and NF-κB in HCT116 cells; test: Western blot of p97 downstream biomarkers; conditions: DBeQ 10 μM, CB-5083 0.5 μM, 8 h treatment
# Protocol: HCT116 cells were plated into 6-well plates (2 × 10^6 cells/well) when they were 70%–80% confluent. DMSO (0.5% v/v) or compounds were added, and cells were harvested after 8 h of treatment and washed three times with phosphate-buffered saline (PBS, pH 7.4). […] The secondary antibodies used were goat anti-mouse IgG (HRP, Abcam/ab6789).
# p97 [6] = test: In vivo p97 expression measurement by ELISA; conditions: day 10, oral 90 μmol/kg/day
# [7] = literature values of DBeQ derivatives, Figure 2, read-out: IC50 (p97 inhibitors developed by several research groups)
# His6-p97, sequence (P55072 whole entry): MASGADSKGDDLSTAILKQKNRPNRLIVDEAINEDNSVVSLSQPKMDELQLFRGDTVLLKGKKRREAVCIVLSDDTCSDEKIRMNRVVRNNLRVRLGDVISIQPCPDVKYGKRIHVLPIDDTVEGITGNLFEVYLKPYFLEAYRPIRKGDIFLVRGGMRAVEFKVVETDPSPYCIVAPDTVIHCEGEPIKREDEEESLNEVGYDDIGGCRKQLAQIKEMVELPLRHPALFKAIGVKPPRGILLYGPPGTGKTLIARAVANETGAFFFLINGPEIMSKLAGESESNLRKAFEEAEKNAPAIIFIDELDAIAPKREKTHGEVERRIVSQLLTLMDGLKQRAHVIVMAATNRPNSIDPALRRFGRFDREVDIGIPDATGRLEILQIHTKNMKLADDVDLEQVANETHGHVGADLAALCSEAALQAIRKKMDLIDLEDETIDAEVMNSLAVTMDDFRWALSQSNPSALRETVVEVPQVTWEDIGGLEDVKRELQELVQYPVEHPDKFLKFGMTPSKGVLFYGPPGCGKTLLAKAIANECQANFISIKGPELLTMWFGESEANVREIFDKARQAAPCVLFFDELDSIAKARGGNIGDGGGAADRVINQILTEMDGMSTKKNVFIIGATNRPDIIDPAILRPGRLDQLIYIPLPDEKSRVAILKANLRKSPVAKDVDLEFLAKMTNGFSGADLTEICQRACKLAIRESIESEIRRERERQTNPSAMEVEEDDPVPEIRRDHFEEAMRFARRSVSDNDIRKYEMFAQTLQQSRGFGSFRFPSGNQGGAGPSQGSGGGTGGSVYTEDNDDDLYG
# p97 ATPase, sequence (P55072 whole entry): as above
Kd (His6-p97) [µM],SMILES,IC50 (p97 [1]; [7]) [µM],proportion of apoptotic cells (HCT116 cells [2]) [%],IC50 (K562) [µM],IC50 (NCM460) [µM],IC50 (s180) [µM],IC50 (HepG2) [µM],IC50 (RPMI-8226) [µM],IC50 (A549) [µM],IC50 (HCT116) [µM],also measured
,COc1cccc2c(NCc3ccccc3)nc(-n3c(C)cc4c(NS(C)(=O)=O)cccc43)nc12 [ML-240],0.11,,,,,,,,,
0.4 ± 0.15,"Nc1nccnc1C(=O)NNc1ncnc2ccccc12 [Compound 5, 3-Amino-Nʹ-(quinazolin-4-yl)pyrazine-2-carbohydrazide]",,9.34,1.79 ± 0.73,24.2 ± 1.05,6.9 ± 2,4.53 ± 1.26,0.75 ± 0.01,24.2 ± 5.39,5.83 ± 1.03,IC50 (p97 ATPase): 0.072 µM
,c1ccc(CNc2nc(N3CCOc4ccccc43)nc3c2CCCC3)cc1 [ML-241],0.1,,,,,,,,,
,"COc1cccc2c(NNC(=O)c3nccnc3N)ncnc12 [Compound 7, 3-Amino-Nʹ-(8-methoxyquinazolin-4-yl)pyrazine-2-carbohydrazide]",,8.94,> 100,27.3 ± 1.62,32.4 ± 2.57,> 100,39.8 ± 0.95,> 100,> 100,effect on the cell cycle (HCT116 cells [3]): arrested the cells in both G0/G1 and S phases
> 10,"COc1cccc2c(NCc3cnccn3)nc(Nc3ccc(/C=C/C(N)=O)cc3)nc12 [Compound 11b, (E)-3-(4-((8-Methoxy-4-((pyrazin-2-ylmethyl)amino)quinazolin-2-yl)amino)phenyl)acrylamide]",,,,,,,,,,IC50 of inactivation activities against p97 (p97 ATPase): Inactive
,"Cc1cc2c(C(N)=O)cccc2n1-c1nc2c(c(NCc3ccccc3)n1)COCC2 [CB-5083, reference compound]",0.011,20.42,0.7 ± 0.42,0.078 ± 0.015,0.24 ± 0.29,0.16 ± 0.03,0.15 ± 0.02,0.77 ± 0.38,0.47 ± 0.16,"ALC [4]: significantly lower; ANC [4]: significantly lower; WBC [4]: significantly lower; body weight change (oral 90 μmol/kg/day, 10 days): obvious weight loss effects; death of mice during the in vivo experiments (oral 90 μmol/kg/day, 10 days): death occurred on day 8; autophagosome formation in the cytoplasm [5]: induced accumulation; levels of the ER stress biomarker (ATF4) [5]: increased levels"
,"COc1cccc2c(NNC(=O)c3cnccn3)ncnc12 [Compound 6, Nʹ-(8-Methoxyquinazolin-4-yl)pyrazine-2-carbohydrazide]",,20.68,> 100,36.2 ± 2.89,1.72 ± 0.69,> 100,3.61 ± 0.27,> 100,2.94 ± 0.1,"ALC [4]: no significant changes; ANC [4]: no significant changes; PLT count [4]: no significant changes; RBC [4]: no significant changes; WBC [4]: no significant changes; death of mice during the in vivo experiments (mouse, in vivo, po): no mice died; body weight change (oral 90 μmol/kg/day, 10 days): No obvious loss of body weight"
,COc1cccc2c(NCc3ccccc3)nc(NCc3ccccc3)nc12 [Compound P2-B11],3.4,,,,,,,,,
0.64 ± 0.26,"O=C(NNc1ncnc2ccccc12)c1cnccn1 [Compound 4, Nʹ-(Quinazolin-4-yl)pyrazine-2-carbohydrazide]",,8.31,66.7 ± 9.97,49.8 ± 3.25,1.04 ± 0.37,> 100,5.24 ± 0.45,> 100,3.48 ± 0.21,effect on the cell cycle (HCT116 cells [3]): cell proportion in the S phase in the compound 4-treated group was notably higher than that in the vehicle group; IC50 (p97 ATPase): 0.108 µM
> 10,"NC(=O)/C=C/c1ccc(Nc2nc(NCc3cnccn3)c3ccccc3n2)cc1 [Compound 11a, (E)-3-(4-((4-((Pyrazin-2-ylmethyl)amino)quinazolin-2-yl)amino)phenyl)acrylamide]",,,,,,,,,,IC50 of inactivation activities against p97 (p97 ATPase): Inactive
,Cc1cc2c(NS(C)(=O)=O)cccc2n1-c1nc2c(c(NCc3ccccc3)n1)COCC2 [compound 35],0.036,,,,,,,,,
5,"O=C(O)/C=C/c1ccc(Nc2nc(NCc3cnccn3)c3ccccc3n2)cc1 [Compound 10a, (E)-3-(4-((4-((Pyrazin-2-ylmethyl)amino)quinazolin-2-yl)amino)phenyl)acrylic acid]",,,,,,,,,,IC50 of inactivation activities against p97 (p97 ATPase): Inactive
> 10,"COc1cccc2c(NCc3cnccn3)nc(Nc3ccc(/C=C/C(=O)O)cc3)nc12 [Compound 10b, (E)-3-(4-((8-Methoxy-4-((pyrazin-2-ylmethyl)amino)quinazolin-2-yl)amino)phenyl)acrylic acid]",,,,,,,,,,IC50 of inactivation activities against p97 (p97 ATPase): Inactive

SMILES,Kd (His6-p97) [µM],IC50 (p97 [1]; [7]) [µM],proportion of apoptotic cells (HCT116 cells [2]) [%],IC50 (K562) [µM],IC50 (NCM460) [µM],IC50 (s180) [µM],IC50 (HepG2) [µM],IC50 (RPMI-8226) [µM],IC50 (A549) [µM],IC50 (HCT116) [µM],also measured
c1ccc(CNc2nc(NCc3ccccc3)c3ccccc3n2)cc1 [DBeQ],0.68 ± 0.059,,19.65,5.64 ± 1.08,6.44 ± 0.36,2.69 ± 0.82,7.57 ± 1.2,4.29 ± 2.46,11.6 ± 0.84,4.78 ± 0.22,"IC50 (p97 [1]; ref Chou et al., 2011, read-out: IC50 in the ATPase activity assays): < 10 µM; ALC [4]: significantly reduced; ANC [4]: no significant alterations; PLT count [4]: no significant alterations; RBC [4]: no significant alterations; WBC [4]: significantly reduced; p97 concentration in the serum (p97 [6]): lowered; autophagosome formation in the cytoplasm [5]: induced accumulation; levels of the ER stress biomarker (ATF4) [5]: increased levels; G0/G1 phase fraction (HCT116 cells [3]; 12 h, same concentration as apoptosis measurement, vehicle 32.82%): 33.53%; percentage of cells in the S phase (HCT116 cells [3]; 12 h, vehicle 23.61%): 16.74%; percentage of cells in the G2/M phase (HCT116 cells [3]; 12 h, vehicle 43.51%): 49.30%; effect on the cell cycle (HCT116 cells [3]): arrested the cell cycle at the G2/M phase; IC50 (p97 ATPase): 0.657 µM"
